Series [1] addresses T1, human mitochondrial RNA polymerase (POLRMT) (Homo sapiens, UniProt O00411). Kind of series: biochemical.
The target in series [2] is T1, human mitochondrial RNA polymerase (POLRMT). Kind of series: single nucleotide incorporation rate assay. It is filed as biochemical.
The target in series [3] is DNA Pol α (Homo sapiens, UniProt P09884). Description: human DNA polymerase inhibition assay. The class given is biochemical.
In series [4] the target is DNA Pol γ (Homo sapiens, UniProt P54098). Description: human DNA polymerase inhibition assay. The class given is biochemical.
Sequence of DNA Pol γ (Q9UHN1 26-485): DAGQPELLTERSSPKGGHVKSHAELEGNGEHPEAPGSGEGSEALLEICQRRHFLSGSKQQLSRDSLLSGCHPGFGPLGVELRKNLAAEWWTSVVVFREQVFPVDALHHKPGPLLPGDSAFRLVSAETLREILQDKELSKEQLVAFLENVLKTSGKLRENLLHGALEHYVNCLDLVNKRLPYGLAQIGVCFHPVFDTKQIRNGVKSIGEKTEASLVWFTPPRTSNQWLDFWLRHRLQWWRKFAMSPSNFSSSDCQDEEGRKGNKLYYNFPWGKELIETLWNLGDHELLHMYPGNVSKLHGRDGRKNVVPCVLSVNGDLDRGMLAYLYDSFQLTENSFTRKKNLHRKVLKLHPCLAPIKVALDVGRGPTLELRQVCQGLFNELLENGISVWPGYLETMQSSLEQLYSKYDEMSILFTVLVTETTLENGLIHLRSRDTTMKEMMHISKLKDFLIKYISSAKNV
Sequence of DNA Pol γ (P54098 whole entry): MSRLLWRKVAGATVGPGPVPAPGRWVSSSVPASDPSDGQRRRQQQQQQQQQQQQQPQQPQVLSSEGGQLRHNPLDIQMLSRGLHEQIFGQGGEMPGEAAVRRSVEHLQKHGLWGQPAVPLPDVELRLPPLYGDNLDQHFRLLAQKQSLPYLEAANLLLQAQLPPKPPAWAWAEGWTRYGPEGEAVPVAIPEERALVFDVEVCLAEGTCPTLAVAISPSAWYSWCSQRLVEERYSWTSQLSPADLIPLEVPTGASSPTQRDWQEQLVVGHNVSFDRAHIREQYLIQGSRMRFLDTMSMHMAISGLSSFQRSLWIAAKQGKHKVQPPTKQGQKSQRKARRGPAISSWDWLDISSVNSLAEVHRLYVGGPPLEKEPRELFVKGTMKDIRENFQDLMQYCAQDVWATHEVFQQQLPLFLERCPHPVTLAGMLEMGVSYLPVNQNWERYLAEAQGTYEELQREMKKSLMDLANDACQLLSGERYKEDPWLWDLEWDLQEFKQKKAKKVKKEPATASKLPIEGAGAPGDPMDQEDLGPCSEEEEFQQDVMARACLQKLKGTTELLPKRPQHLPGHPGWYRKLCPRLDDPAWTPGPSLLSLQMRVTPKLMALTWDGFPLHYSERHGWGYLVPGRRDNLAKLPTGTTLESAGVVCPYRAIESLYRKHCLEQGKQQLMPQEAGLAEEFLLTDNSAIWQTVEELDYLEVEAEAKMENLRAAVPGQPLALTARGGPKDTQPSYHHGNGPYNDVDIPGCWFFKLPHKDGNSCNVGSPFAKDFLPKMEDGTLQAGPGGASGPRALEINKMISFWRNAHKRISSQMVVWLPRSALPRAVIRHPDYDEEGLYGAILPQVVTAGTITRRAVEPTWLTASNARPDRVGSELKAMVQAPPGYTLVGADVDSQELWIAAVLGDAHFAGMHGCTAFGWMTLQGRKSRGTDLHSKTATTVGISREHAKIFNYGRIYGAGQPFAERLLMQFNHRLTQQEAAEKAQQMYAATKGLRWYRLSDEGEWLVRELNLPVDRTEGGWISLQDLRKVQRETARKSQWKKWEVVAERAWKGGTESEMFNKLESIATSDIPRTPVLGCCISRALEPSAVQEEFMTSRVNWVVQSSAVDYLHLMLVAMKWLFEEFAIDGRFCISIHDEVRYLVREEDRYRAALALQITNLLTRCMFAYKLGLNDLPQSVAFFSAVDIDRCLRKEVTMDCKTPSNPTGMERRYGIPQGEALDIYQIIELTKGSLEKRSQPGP
For series [5], the system named is Influenza A virus FluA H1N1. Description: microbe, parasite or virus in culture. The note with it: H1N1, MDCK, read-out: FluA H1N1 EC50 (µM).
Series [6] concerns Enterovirus A71 EV-71. Kind of series: microbe, parasite or virus in culture. The following applies: Enterovirus A, EV71, RD, read-out: EV EC50 (µM).
Series [7] is described as follows: in vitro. The note with it: human, a549-hace2 cells.
Series [8] has as its system EV-D68. The following applies: read-out: RD CC50; human, rd cells.
Series [9] has as its system Human metapneumovirus hMPV A1. Kind of series: microbe, parasite or virus in culture. The note with it: LLC-MK2, read-out: hMPV A1 EC50 (µM).
In series [10] the test system is EV-D68. Kind of series: microbe, parasite or virus in culture. The following applies: Enterovirus D, EVD68, RD, read-out: EV EC50 (µM).
Series [11] relates to MDCK. The note with it: read-out: MDCK CC50, dog.
The subject of series [12] is Human rhinovirus A16 RV-A 16. Kind of series: microbe, parasite or virus in culture. The following applies: H1-HeLa, read-out: RV EC50 (µM).
For series [13], the system named is LLC-MK2. The following applies: monkey, llc-mk2 cells.
For series [14], the system named is Human rhinovirus B14 RV-B 14. Kind of series: microbe, parasite or virus in culture. The following applies: H1-HeLa, read-out: RV EC50 (µM).
Series [15] concerns Human rhinovirus A16 RV-A 16. The note with it: read-out: H1 HeLa CC50, h1 hela cells, 96 h.

T1 sequence (O00411 42-1230): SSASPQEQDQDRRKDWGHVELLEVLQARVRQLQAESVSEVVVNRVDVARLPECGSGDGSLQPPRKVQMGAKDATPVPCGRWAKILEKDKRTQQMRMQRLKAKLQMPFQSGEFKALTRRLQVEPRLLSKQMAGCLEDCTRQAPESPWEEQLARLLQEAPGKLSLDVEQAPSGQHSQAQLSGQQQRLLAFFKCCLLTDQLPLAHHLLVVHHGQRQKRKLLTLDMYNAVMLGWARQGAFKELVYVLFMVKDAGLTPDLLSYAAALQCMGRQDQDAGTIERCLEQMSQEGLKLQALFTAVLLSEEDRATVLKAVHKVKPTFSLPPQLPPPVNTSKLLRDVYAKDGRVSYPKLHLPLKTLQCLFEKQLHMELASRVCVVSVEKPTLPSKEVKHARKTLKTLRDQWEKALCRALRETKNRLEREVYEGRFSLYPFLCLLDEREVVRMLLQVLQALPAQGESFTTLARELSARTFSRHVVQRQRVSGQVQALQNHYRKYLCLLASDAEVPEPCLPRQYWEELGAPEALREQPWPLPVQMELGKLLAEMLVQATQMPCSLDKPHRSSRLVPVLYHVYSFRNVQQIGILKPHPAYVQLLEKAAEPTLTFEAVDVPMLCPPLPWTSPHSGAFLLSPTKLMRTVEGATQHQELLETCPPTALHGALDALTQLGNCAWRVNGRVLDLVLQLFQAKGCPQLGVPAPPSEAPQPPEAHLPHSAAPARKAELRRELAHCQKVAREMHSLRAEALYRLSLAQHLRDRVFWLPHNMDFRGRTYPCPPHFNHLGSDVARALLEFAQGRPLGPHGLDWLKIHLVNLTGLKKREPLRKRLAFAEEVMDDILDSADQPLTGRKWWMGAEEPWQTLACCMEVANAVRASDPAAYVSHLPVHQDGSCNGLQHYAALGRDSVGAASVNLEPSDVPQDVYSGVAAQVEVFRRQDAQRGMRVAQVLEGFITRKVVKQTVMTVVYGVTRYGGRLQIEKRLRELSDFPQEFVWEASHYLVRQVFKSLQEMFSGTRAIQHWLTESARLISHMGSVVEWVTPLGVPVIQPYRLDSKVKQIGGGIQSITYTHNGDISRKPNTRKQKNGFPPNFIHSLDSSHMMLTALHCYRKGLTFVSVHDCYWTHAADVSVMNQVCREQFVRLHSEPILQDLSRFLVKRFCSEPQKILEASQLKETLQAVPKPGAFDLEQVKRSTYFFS
Sequence of DNA Pol α (P09884 whole entry): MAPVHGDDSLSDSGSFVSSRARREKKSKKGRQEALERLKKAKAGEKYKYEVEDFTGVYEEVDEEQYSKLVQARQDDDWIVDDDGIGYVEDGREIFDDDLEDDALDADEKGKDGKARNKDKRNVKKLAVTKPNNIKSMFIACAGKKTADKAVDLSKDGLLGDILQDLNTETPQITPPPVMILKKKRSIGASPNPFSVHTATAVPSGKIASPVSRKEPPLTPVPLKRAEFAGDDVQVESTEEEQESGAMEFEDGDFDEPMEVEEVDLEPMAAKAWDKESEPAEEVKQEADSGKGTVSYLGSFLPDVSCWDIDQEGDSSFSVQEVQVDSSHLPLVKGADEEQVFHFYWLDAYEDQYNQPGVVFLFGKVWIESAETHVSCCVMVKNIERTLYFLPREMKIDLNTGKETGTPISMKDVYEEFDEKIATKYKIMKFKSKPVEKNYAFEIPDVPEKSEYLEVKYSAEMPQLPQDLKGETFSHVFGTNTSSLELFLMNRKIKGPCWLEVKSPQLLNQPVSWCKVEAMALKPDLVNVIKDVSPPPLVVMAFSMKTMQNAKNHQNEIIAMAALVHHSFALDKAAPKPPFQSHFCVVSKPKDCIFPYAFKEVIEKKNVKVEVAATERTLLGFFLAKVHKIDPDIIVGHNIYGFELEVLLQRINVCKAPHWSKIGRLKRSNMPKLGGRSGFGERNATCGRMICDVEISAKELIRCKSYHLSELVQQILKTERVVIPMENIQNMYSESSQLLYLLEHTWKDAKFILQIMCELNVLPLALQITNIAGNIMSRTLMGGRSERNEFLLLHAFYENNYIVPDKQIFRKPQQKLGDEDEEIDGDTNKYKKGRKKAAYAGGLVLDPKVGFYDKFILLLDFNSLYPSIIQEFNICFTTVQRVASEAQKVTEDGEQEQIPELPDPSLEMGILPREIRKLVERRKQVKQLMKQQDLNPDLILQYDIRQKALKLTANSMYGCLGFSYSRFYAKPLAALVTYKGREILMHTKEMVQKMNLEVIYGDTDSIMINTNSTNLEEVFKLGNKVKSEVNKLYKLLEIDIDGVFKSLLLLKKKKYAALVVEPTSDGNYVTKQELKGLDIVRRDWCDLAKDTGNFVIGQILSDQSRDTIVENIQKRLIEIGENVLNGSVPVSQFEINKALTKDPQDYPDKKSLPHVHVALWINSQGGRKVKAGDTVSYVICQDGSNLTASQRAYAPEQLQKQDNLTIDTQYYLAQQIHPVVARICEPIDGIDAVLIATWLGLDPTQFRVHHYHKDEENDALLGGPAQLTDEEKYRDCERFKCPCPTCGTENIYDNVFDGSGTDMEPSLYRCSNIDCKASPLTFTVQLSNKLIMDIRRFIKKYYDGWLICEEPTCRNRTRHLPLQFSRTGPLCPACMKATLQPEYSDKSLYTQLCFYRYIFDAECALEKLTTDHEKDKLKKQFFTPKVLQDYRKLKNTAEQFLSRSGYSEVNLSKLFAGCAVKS

For the molecule `N#C[C@]1(COP(=O)(O)OP(=O)(O)OP(=O)(O)O)O[C@@H](c2ccc3c(N)ncnn23)[C@H](O)[C@@H]1O` [2-NTP, ((2R,3S,4R,5S)-5-(4-Aminopyrrolo[2,1-f][1,2,4]triazin-7-yl)-2-cyano-3,4-dihydroxytetrahydrofuran-2-yl)methyl triphosphate], the IC50 in series [1], in series [3] and in series [4] was more than 200 µM each time. Moreover, the SNIR in series [2] stood at 0.8%.
Turning to `COC(=O)[C@H](C)N[P@](=O)(OC[C@@]1(C#N)O[C@@H](c2ccc3c(N)ncnn23)[C@H](OC(=O)C(C)C)[C@@H]1OC(=O)C(C)C)Oc1ccccc1` [compound 1, GS-7682], the half-maximal effective concentration (EC50) was more than 2 µM in series [5]; 0.083 ± 0.035 µM in series [6]; 0.21 ± 0.05 µM in series [9]; 0.09 ± 0.06 µM in series [10]; 0.061 ± 0.006 µM in series [12]; 0.054 ± 0.002 µM in [14]. Moreover, the CC50 at 28 h in [7] is 21.1 ± 4.4 µM. Besides, the CC50 in series [8] is more than 2 µM; in series [11], more than 2 µM; in [13] it was more than 2 µM; in series [15], 22.2 ± 6.3 µM.

The term IC50 denotes the midpoint of a concentration-inhibition curve. A high value points to lower potency. A word on the EC50: it is the concentration giving half of the maximal effect.

(Values after paper doi:10.1101/2024.04.17.589937v1 (biorxiv, 2024).)
